Test results taken from patent US20120034210A1, “COMPOSITIONS FOR POTENTIATING APOPOSIS SIGNALS IN TUMOUR CELLS” (INSTITUT BERGONIE, priority 2008, published 2012).

Legend:
[1] = tested on: intracellular calcium concentration; assay: Intracellular Ca2+ concentration, indo-1 (micro)spectrofluorimetry; format: cell-based, human
Procedure: Principle: [Ca^2+]i was measured by microspectrofluorimetry using a calcium sensitive fluorescent probe: indo-1. When excited at 360 nm wavelength, the so-called monoexcitation/double emission indo-1 probe transmitted back in a spectrum ranging from 400 to 500 nm. Binding of Ca^2+ to indo-1 caused displacement of the emission spectrum after excitation. The emission maximum in the unbound form was located around 480 nm. The emission of the complexed form was around 405 nm. An increase of calcium concentration thus caused the emission to increase to 405 nm and the emission to decrease to 480 nm. The ratio of both fluorescence intensities allowed to be independent from the quantity of the probe and to determine the [Ca^2+]i according to the Grynkiewicz equation:
[Ca^2+]i(nM)=Kd.β×(R−Rmin)/(Rmax−R)
Rmax, Rmin and Kd. β were determined by combining electrophysiology (patch clamp) and spectrofluorimetry. Rmax was determined by placing in the patch pipette a medium containing 10 mM CaCl2. Rmin was obtained by placing as an intrapipette solution a calcium-deprived medium (10 mM EGTA).
The cells were then rinsed with HBSS (800 rpm centrifugation for 2 minutes) and placed in an observation chamber on a glass coverslip. […] The excitation light is supplied by a Xenon lamp (100W). […] The substances to be tested were applied using a glass pipette positioned at some twenty μm of the studied cell and connected to a pneumatic system.
The principle as well as the loading of the cells were identical with the measurement on single cells. In such a case, approx. 40,000 cells were placed in a quartz tub under constant agitation. The tub was then placed in a Hitachi spectrofluorimeter whereof the excitation monochromator was set to 350 nm. […] The signals were transmitted to a computer via an analogue/digital converter. So as to be able to apply the Grynkiewicz equation (see above) and translate the fluorescence ratios measured in calcium values, the calibration parameters were entered into the software. The substances to be tested were applied directly in the tube under constant agitation.

caspase-8 = assay: Caspase-8 activation/cleavage; format: cell-based, human

**Q.** `CC(=O)OCOC(=O)CN(CC(=O)OCOC(C)=O)c1ccccc1OCCOc1ccccc1N(CC(=O)OCOC(C)=O)CC(=O)OCOC(C)=O` [BAPTA-AM, 1,2-bis-(o-Aminophenoxy)ethane-N,N,N′,N′-tetraacetic tetra-(acetoxymethyl) acid Ester] was tested. Which “increase in intracellular calcium in response to extracellular 3 mM Ca2+” value ([1]; Raji, BAPTA-AM 10 μM pretreatment) did it give?
**A.** smaller increase in the intracellular calcium concentration

**Q.** What about the “CD95-mediated peak of calcium” value ([1]; non-cytotoxic concentrations, CD95 stimulation) of the same compound?
**A.** totally abrogated the CD95-mediated peak of calcium

**Q.** What about the “basal [Ca2+]i” value ([1]; pre-incubation of cells) of the same compound?
**A.** induced a faint decrease in the basal [Ca^2+]i

**Q.** What about the “kinetic of caspase-8 cleavage upon CD95L” value (caspase-8; T and B-cell lines) of the same compound?
**A.** accelerated the cleavage of the initiator caspase-8

**Q.** What about the “caspase-8 activation or mitochondrial depolarization by the agent alone” value (caspase-8; during 60 minutes treatment, no CD95L) of the same compound?
**A.** no trace of caspase-8 activation or mitochondrial depolarization was detected
